Values joined by “and” are separate entries in the source; they are usually repeats but may differ in a detail not shown here. Equal entries are not always repeated. Where two headings read alike, the source gives them in different places.
Assay: Part 2 PK study: 200 mg QD versus 100 mg BID for 10 days under fed conditions
Assay type: in vivo, human
Conditions: fed; for AUC: read-out: AUC0-tau; for Tmax: read-out: Tmax; for half-life: read-out: t½ (converted); for concentration at 10 day: read-out: Cmin; for Vd/F: read-out: Vz/F
Procedure: Part 2 involved analysing the PK parameters obtained following either single (QD) or twice daily (BD) dosing of a compound of formula (Ia) under fed conditions.
Subjects were randomized 1:1 to receive a daily dose of 200 mg administered once daily in the morning (200 mg capsule) or twice daily (100 mg capsules BID) for a total of 10 days. PK blood samples were taken on Day 1 pre-dose and at 0.25, 0.5, 1.0, 1.5, 2, 3, 4, 8, 10, 12 and 16 hours post-dose. On Days 2 to 10, PK blood samples were taken once pre-dose, and on Days 11 to 14, at 24, 36, 48, 60, 72 and 96 hours post-dose.
Subjects selected for participation checked into the clinical unit and were randomized to the dosing regimen receiving their first dose of study drug on the morning of Day 1 followed by PK and safety assessments through the morning of Day 2 (24 hours post-dose). Subjects on a BID regimen received their second dose of study drug approximately 12 hours after the first dose. Subjects remained confined in the clinic for dosing BID or QD through the last dose of study drug on the morning of Day 10. PK samples were collected through 96 hrs post-dose. Subjects were discharged from the clinic following collection of the 72 hr PK sample, returning to the clinic on the morning of Day 14 for the 96 hr sample collection.
For both Parts 1 and 2, samples were processed and analysed as follows. The method extracted Q-122 and the Internal Standard (IS, Q-122 ^13C4) from human plasma using protein precipitation extraction.
The analytes were separated by HPLC on a Phenomenex Synergi Polar-RP column, and the eluates monitored by an API4000 MS/MS detector in positive MRM mode. The extract was then assayed against a calibration curve. The data were acquired and processed by the data acquisition system Analyst® (Sciex) linked directly to the API4000 MS/MS detector and then processed in Watson LIMS™ (Thermo Scientific), where applicable. The method range is from 10.0 to 2500 ng/mL using 50 μL of matrix and has a run time of approximately 3.2 minutes per sample.
Plasma PK parameters for each dosing regimen and dose level were calculated from the concentrations of Q-122 and its major metabolites measured in pre-dose and post-dose plasma samples. For each dose level, descriptive statistics (sample size, arithmetic means, geometric means, standard deviation, % coefficient of variation, minimum, median, and maximum) are presented.
The pharmacokinetic results were processed according to standard non-compartmental analytical procedures. The software used was Phoenix™ WinNonlin® v 6.4 (Pharsight Corporation, USA) and Microsoft® Excel® 2010 (Microsoft Corporation). The following PK parameters were estimated from plasma data.

[1] = 200 mg QD, Day 10, individual subjects
[2] = human, plasma, oral, 100 mg, 100 mg BID, Day 1, individual subjects
[3] = human, plasma, oral, 100 mg, 100 mg BID, Day 1, mean
[4] = human, plasma, oral, 100 mg, 100 mg BID, Day 1, median
[5] = human, plasma, oral, 100 mg, 100 mg BID, Day 10, individual subjects
[6] = human, plasma, oral, 100 mg, 100 mg BID, Day 10, mean
[7] = human, plasma, oral, 100 mg, 100 mg BID, Day 10, median
[8] = human, plasma, oral, 200 mg, 200 mg QD, Day 1, mean
[9] = human, plasma, oral, 200 mg, 200 mg QD, Day 1, median
[10] = human, plasma, oral, 200 mg, 200 mg QD, Day 10, mean
[11] = human, plasma, oral, 200 mg, 200 mg QD, Day 10, median

For c1cnc(NCc2ccc(CNc3ncccn3)cc2)nc1 [Q-122], the “% AUCexp” value [1] was 2.32% and 3.36% and 2.33% and 7.19% and 10.70% and 1.77%, the AUC0-last [1] was 12003 ng·h/mL and 11557 ng·h/mL and 9531 ng·h/mL and 14024 ng·h/mL and 6077 ng·h/mL and 10643 ng·h/mL and the AUC0-tau [1] was 10424 ng·h/mL and 9904 ng·h/mL and 8868 ng·h/mL and 11036 ng·h/mL and 3134 ng·h/mL and 9758 ng·h/mL. For the same molecule, the AUCinf [1] was 12287 ng·h/mL and 11959 ng·h/mL and 9759 ng·h/mL and 15111 ng·h/mL and 6805 ng·h/mL and 10834 ng·h/mL, the “Accum Index” value [1] was 1.44 and 1.78 and 1.34 and 2.88 and 2.25 and 1.22 and the CLss/F [1] was 19.19 L/h and 20.19 L/h and 22.55 L/h and 18.12 L/h and 63.82 L/h and 20.50 L/h. The Cavg [1] was 434.33 ng/mL and 412.65 ng/mL and 369.52 ng/mL and 459.84 ng/mL and 130.57 ng/mL and 406.57 ng/mL, the Cmax [1] was 1450.00 ng/mL and 1730.00 ng/mL and 1430.00 ng/mL and 1320.00 ng/mL and 245.00 ng/mL and 1470.00 ng/mL and the Cmin [1] was 74.10 ng/mL and 73.50 ng/mL and 52.20 ng/mL and 93.90 ng/mL and 68.20 ng/mL and 77.70 ng/mL. For the same molecule, the Fluct [1] was 316.79% and 401.43% and 372.87% and 266.63% and 135.41% and 342.45%, the Tlast [1] was 60.00 h and 72.00 h and 48.00 h (2×) and 96.00 h (2×) and the t½ [1] was 13.99 h and 20.21 h and 12.03 h and 39.04 h and 28.35 h and 9.63 h. For the same molecule, the “% AUCexp” value (200 mg QD, Day 10, max) was 10.70%, the AUC0-last (200 mg QD, Day 10, max) was 14024 ng·h/mL and the AUC0-tau (200 mg QD, Day 10, max) was 11036 ng·h/mL. The AUCinf (200 mg QD, Day 10, max) was 15111 ng·h/mL, the “Accum Index” value (200 mg QD, Day 10, max) was 2.88 and the CLss/F (200 mg QD, Day 10, max) was 63.82 L/h. For the same molecule, the Cavg (200 mg QD, Day 10, max) was 459.84 ng/mL, the Cmax (200 mg QD, Day 10, max) was 1730.00 ng/mL and the Cmin (200 mg QD, Day 10, max) was 93.90 ng/mL. It also gave a Fluct (200 mg QD, Day 10, max) of 401.43%, a Tlast (200 mg QD, Day 10, max) of 96.00 h and a t½ (200 mg QD, Day 10, max) of 39.04 h. The “% AUCexp” value (200 mg QD, Day 10, mean) was 4.612%, the CLss/F (200 mg QD, Day 10, mean) was 27.396 L/h and the Cavg (200 mg QD, Day 10, mean) was 368.913 ng/mL. It also gave a Cmin (200 mg QD, Day 10, mean) of 73.267 ng/mL, a Fluct (200 mg QD, Day 10, mean) of 305.929% and a Tlast (200 mg QD, Day 10, mean) of 70.000 h. The “% AUCexp” value (200 mg QD, Day 10, median) was 2.85%, the “Accum Index” value (200 mg QD, Day 10, median) was 1.61 and the CLss/F (200 mg QD, Day 10, median) was 20.35 L/h. The Cavg (200 mg QD, Day 10, median) was 409.61 ng/mL, the Cmin (200 mg QD, Day 10, median) was 73.80 ng/mL and the Fluct (200 mg QD, Day 10, median) was 329.62%. For the same molecule, the Tlast (200 mg QD, Day 10, median) was 66.00 h, the “% AUCexp” value (200 mg QD, Day 10, min) was 1.77% and the AUC0-last (200 mg QD, Day 10, min) was 6077 ng·h/mL. The AUC0-tau (200 mg QD, Day 10, min) was 3134 ng·h/mL, the AUCinf (200 mg QD, Day 10, min) was 6805 ng·h/mL and the “Accum Index” value (200 mg QD, Day 10, min) was 1.22. The CLss/F (200 mg QD, Day 10, min) was 18.12 L/h, the Cavg (200 mg QD, Day 10, min) was 130.57 ng/mL and the Cmax (200 mg QD, Day 10, min) was 245.00 ng/mL. The Cmin (200 mg QD, Day 10, min) was 52.20 ng/mL, the Fluct (200 mg QD, Day 10, min) was 135.41% and the Tlast (200 mg QD, Day 10, min) was 48.00 h. The t½ (200 mg QD, Day 10, min) was 9.63 h, the AUC(0-t) [2] was 8170 ng·h/mL and the AUC [2] was 2800 ng·h/mL. The AUC(0-t) [3] was 6630 ng·h/mL, the AUC [3] was 3590 ng·h/mL and the Cmax (human, plasma, oral, 100 mg, 100 mg BID, Day 1, mean, read-out: Cmax) was 730 ng/mL. The Tmax [3] was 2.25 h, the half-life [3] was 5.49 h and the AUC(0-t) [4] was 6640 ng·h/mL. The AUC [4] was 3690 ng·h/mL, the Cmax (human, plasma, oral, 100 mg, 100 mg BID, Day 1, median, read-out: Cmax) was 809 ng/mL and the Tmax [4] was 2 h. The half-life [4] was 5.1 h, the AUC(0-inf) [5] was 9020 ng·h/mL and the AUC(0-t) [5] was 8810 ng·h/mL. The AUC [5] was 7000 ng·h/mL, the Cmax (human, plasma, oral, 100 mg, 100 mg BID, Day 10, individual subjects, read-out: Cmax) was 1300 ng/mL and the Tmax [5] was 2 h. The AUC(0-inf) [6] was 7270 ng·h/mL, the AUC(0-t) [6] was 6950 ng·h/mL and the AUC [6] was 5440 ng·h/mL. It also gave a Cmax (human, plasma, oral, 100 mg, 100 mg BID, Day 10, mean, read-out: Cmax) of 1020 ng/mL, a concentration at 10 day [6] of 146 ng/mL and a Tmax [6] of 1.75 h. For the same molecule, the Vd/F [6] was 370 L, the half-life [6] was 11.8 h and the AUC(0-inf) [7] was 7310 ng·h/mL. The AUC(0-t) [7] was 7040 ng·h/mL, the AUC [7] was 5760 ng·h/mL and the Cmax (human, plasma, oral, 100 mg, 100 mg BID, Day 10, median, read-out: Cmax) was 1060 ng/mL. It also gave a Tmax [7] of 2 h, a Vd/F [7] of 210 L and a half-life [7] of 8.2 h. The Tmax (human, plasma, oral, 200 mg, 200 mg QD, Day 1, individual subjects) was 3 h, the AUC(0-t) [8] was 8060 ng·h/mL and the AUC [8] was 8060 ng·h/mL. It also gave a Cmax (human, plasma, oral, 200 mg, 200 mg QD, Day 1, mean, read-out: Cmax) of 1350 ng/mL, a Tmax [8] of 3.17 h and a half-life [8] of 8.64 h. The AUC(0-t) [9] was 7790 ng·h/mL, the AUC [9] was 7790 ng·h/mL and the Cmax (human, plasma, oral, 200 mg, 200 mg QD, Day 1, median, read-out: Cmax) was 1560 ng/mL. The Tmax [9] was 3 h, the half-life [9] was 7.7 h and the Tmax (human, plasma, oral, 200 mg, 200 mg QD, Day 10, individual subjects) was 4 h. The AUC(0-inf) [10] was 11100 ng·h/mL, the AUC(0-t) [10] was 10600 ng·h/mL and the AUC [10] was 8850 ng·h/mL. For the same molecule, the Cmax (human, plasma, oral, 200 mg, 200 mg QD, Day 10, mean, read-out: Cmax) was 1270 ng/mL, the concentration at 10 day [10] was 73 ng/mL and the Tmax [10] was 3.33 h. For the same molecule, the Vd/F [10] was 881 L, the half-life [10] was 20.5 h and the AUC(0-inf) [11] was 11400 ng·h/mL. The AUC(0-t) [11] was 11100 ng·h/mL, the AUC [11] was 9830 ng·h/mL and the Cmax (human, plasma, oral, 200 mg, 200 mg QD, Day 10, median, read-out: Cmax) was 1440 ng/mL. For the same molecule, the Tmax [11] was 3.5 h, the Vd/F [11] was 490 L and the half-life [11] was 17.1 h.

From patent publication US20220133722A1, “PHARMACEUTICAL COMPOSITIONS” (QUE ONCOLOGY PTY LTD, priority 2019, published 2022)
